Drawing on patent publication US20240409536A1, “COMPOUNDS AND METHODS FOR MODULATING SPLICING” (REMIX THERAPEUTICS INC., priority 2021, published 2024), this text covers IC50 for nine compounds.

Where only a bound is given, the exact number is not on record here.

Type in all cases: cell-based, human
One experiment relates to MYB mRNA. Put plainly: Gene panel canonical junction qPCR assay, MYB CJ mRNA decrease. The note with it: Homo sapiens, canonical junction qPCR, read-out: MYB IC50 (decrease in CJ mRNA levels). Summed up:
(§1)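 A673 or K562 cells treated with compound; canonical exon-exon junction mRNA quantified by cDNA synthesis and RT-qPCR with junction-spanning primer/probe, normalized to GAPDH, GUSB or PPIA and DMSO (2^(−ΔΔCt)). Percent response from set ΔCt assay windows fitted to 4-parameter logistic; IC50 for CJ decrease.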
(In qPCR the cycle at which signal appears reflects the starting amount.)

Another experiment deals with HTT mRNA. Put plainly: Gene panel canonical junction qPCR assay, HTT CJ mRNA decrease. Particulars: Homo sapiens, canonical junction qPCR, read-out: HTT IC50 (decrease in CJ mRNA levels). Summed up: as §1
The test system of a further experiment is HiBiT-tagged HTT protein. Briefly: HiBiT protein abundance assay, HTT (K562 HiBiT knock-in cells). The note with it: 24 hours. In outline: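 Luminescent readout of HiBiT-tagged endogenous protein after lysis, following 24 h compound exposure of knock-in K562 lines at 37 °C. Ten 3-fold concentrations from 10 μM final, DMSO ≤0.25%. Four-parameter logistic fit of normalized response gives concentration halving abundance (IC50).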

The next experiment deals with SMN2 mRNA. Put plainly: Gene panel canonical junction qPCR assay, SMN2 CJ mRNA decrease. Particulars: Homo sapiens, canonical junction qPCR, read-out: SMN2 IC50 (decrease in CJ mRNA levels). In outline:
as §1

One may read the IC50 as the concentration that inhibits the measured activity by half. Consider `CNC1CCN(c2ccc(C(=O)Nc3cc(F)c4nc(C)cn4c3)c3ncc(OC)nc23)C1` (stereo in doubt) [Compound 227, (R)—N-(8-fluoro-2-methylimidazo[1,2-a]pyridin-6-yl)-2-methoxy-8-(3-(methylamino)pyrrolidin-1-yl)quinoxaline-5-carboxamide 2,2,2-trifluoroacetate], for which the IC50 is 1000 to 10000 nM with MYB mRNA, > 10000 nM with HTT mRNA, 1000 to 10000 nM with HiBiT-tagged HTT protein and < 100 nM in the experiment on SMN2 mRNA.

On to `Cc1cn2cc(NC(=O)c3ccc(N4CCC(NC(C)(C)C)C4)c4ccnnc34)cc(F)c2n1` (centres unmarked) [Compound 109], for which the IC50 in the experiment on MYB mRNA is 1000 to 10000 nM; in the experiment with HTT mRNA it was 1000 to 10000 nM; in the experiment on HiBiT-tagged HTT protein, 1000 to 10000 nM; in the experiment with SMN2 mRNA, 100 to 1000 nM.

In the case of `Cc1cnc2c(C(=O)Nc3cc(F)c4nc(C)cn4c3)ccc(N3C[C@@H](C)N[C@@H](C)C3)c2n1` [Compound 217, 8-((3R,5S)-3,5-dimethylpiperazin-1-yl)-N-{8-fluoro-2-methylimidazo[1,2-a]pyridin-6-yl}-2-methylquinoxaline-5-carboxamide], the results for the IC50 with MYB mRNA, in the experiment with HiBiT-tagged HTT protein and with SMN2 mRNA were < 100 nM, 100 to 1000 nM and < 100 nM, respectively.

In the case of `CCNC1CCN(c2ccc(C(=O)Nc3cc(F)c4nc(C)cn4c3)c3nc(C)ccc23)CC1` [Compound 228, 5-[4-(ethylamino)piperidin-1-yl]-N-{8-fluoro-2-methylimidazo[1,2-a]pyridin-6-yl}-2-methylquinoline-8-carboxamide], the IC50 in the experiment on MYB mRNA was < 100 nM; with HTT mRNA, 100 to 1000 nM; in the experiment on HiBiT-tagged HTT protein, 100 to 1000 nM; in the experiment on SMN2 mRNA, < 100 nM.

Regarding `COCCOc1ccc2c(N3CCC(N(C)C)CC3)ccc(C(=O)Nc3cc(F)c4nc(C)cn4c3)c2n1` [Compound 229, 5-[4-(dimethylamino)piperidin-1-yl]-N-{8-fluoro-2-methylimidazo[1,2-a]pyridin-6-yl}-2-(2-methoxyethoxy)quinoline-8-carboxamide], the IC50 is 100 to 1000 nM in the experiment on MYB mRNA, > 10000 nM with HTT mRNA, > 10000 nM in the experiment on HiBiT-tagged HTT protein and < 100 nM in the experiment on SMN2 mRNA.

In the case of `Cc1cn2cc(NCc3ccc(N4CCNCC4)c4ccnnc34)cc(F)c2n1` [Compound 230, 8-fluoro-2-methyl-N-{[5-(piperazin-1-yl)cinnolin-8-yl]methyl}imidazo[1,2-a]pyridin-6-amine], the IC50 is > 10000 nM in the experiment on MYB mRNA, 1000 to 10000 nM in the experiment with HTT mRNA, > 10000 nM with HiBiT-tagged HTT protein and > 10000 nM in the experiment with SMN2 mRNA.

Consider `CNC1CCN(c2ccc(C(=O)Nc3cc(F)c4nc(C)cn4c3)c3nnccc23)C1` (centres unmarked) [Compound 231, N-{8-fluoro-2-methylimidazo[1,2-a]pyridin-6-yl}-5-[3-(methylamino)pyrrolidin-1-yl] cinnoline-8-carboxamide], for which the IC50 in the experiment with MYB mRNA was < 100 nM; in the experiment with HTT mRNA, 1000 to 10000 nM; in the experiment with HiBiT-tagged HTT protein, 1000 to 10000 nM; in the experiment with SMN2 mRNA, < 100 nM.

Consider `COCCOc1ccc2c(N3C[C@@H](C)N[C@@H](C)C3)ccc(C(=O)Nc3cc(F)c4nc(C)cn4c3)c2n1` [Compound 232, 5-[(3R,5S)-3,5-dimethylpiperazin-1-yl]-N-{8-fluoro-2-methylimidazo[1,2-a]pyridin-6-yl}-2-(2-methoxyethoxy)quinoline-8-carboxamide], for which the IC50 with MYB mRNA was 100 to 1000 nM; with HTT mRNA, 1000 to 10000 nM; in the experiment with HiBiT-tagged HTT protein it was 1000 to 10000 nM; in the experiment on SMN2 mRNA it was < 100 nM.

As to `CCNC1CCN(c2ccc(C(=O)Nc3cc(F)c4nc(C)cn4c3)c3nc(OCCOC)ccc23)CC1` [Compound 233, 5-[4-(ethylamino)piperidin-1-yl]-N-{8-fluoro-2-methylimidazo[1,2-a]pyridin-6-yl}-2-(2-methoxyethoxy)quinoline-8-carboxamide], the IC50 in the experiment on MYB mRNA is 100 to 1000 nM; in the experiment on HTT mRNA it was 1000 to 10000 nM; in the experiment on HiBiT-tagged HTT protein, 1000 to 10000 nM; in the experiment on SMN2 mRNA, < 100 nM.
